Measured values: publication PMC5459853, “Cathepsin S inhibition combines control of systemic and peripheral pathomechanisms of autoimmune tissue injury” (Scientific Reports, 2017)
“Also recorded” adds a separate entry of the source.

Assays:
Assay type in all cases: in vivo
MRL-(Fas)lpr mice [1] = assay: Intravenous recombinant Cat-S injection: albuminuria and glomerular ultrastructure (TEM); conditions: 10 µg recombinant Cat-S i.v.
Method: (§1) Four-week-old female MRL-(Fas)lpr mice were purchased from Harlan Winkelmann (Borchen, Germany) and kept under pathogen-free conditions in a 12 hour light and dark cycle with free access to food and water. All animal experiments were performed in accordance with the European protection laws of animal welfare, and with approval by the local government authorities Regierung von Oberbayern (reference number: 55.2.1-54-2532.2-11-12). At 11 or 15 weeks of age only mice with proteinuria (Albustix, Bayer AG, Leverkusen, Germany) were randomized into five different groups (n = 10) receiving different medicated diets: Three groups were fed with chow mixed with either 3, 10 or 30 mg/kg/day RO5459072, another group’s chow was mixed with 100 mg/kg/day mycophenolate mofetil (MMF), and one group received a standard diet (vehicle). The dose of MMF was chosen according to several studies reporting strong efficacy on SLE and lupus nephritis in MRL-(Fas)lpr mice[24]–[26]. […] At the age of 19 weeks all mice were sacrificed by cervical dislocation. Blood and urine samples were collected at different time points as indicated. In other experiments 7 week old female MRL-(Fas)lpr mice were randomized into three groups (n = 3) to receive a single intravenous injection of 10 µg sterile recombinant Cat-S and one group receiving vehicle (100 µl sterile PBS). One of the Cat-S groups was pretreated with 30 mg/kg/day RO5459072 starting one week prior to Cat-S injection; another group was pretreated with a total of four daily intra-peritoneal injections of the PAR-2 inhibitor GB83 (10 mg/kg).
Urinary albumin/creatinine ratios were determined using the Mouse Albumin ELISA Quantitation set (Bethyl Laboratories, Montgomery, TX) and the Creatinine FS kit (DiaSys Diagnostic Systems, Holzheim, Germany)[44]. BUN levels were determined in plasma samples using a Urea FS kit (DiaSys Diagnostic Systems). Mouse IgM, IgG and its isotypes IgG1, IgG2a and IgG2b plasma levels were measured using ELISA Sets (Bethyl Laboratories) at a plasma dilution of 1:1,000 to 1:100,000. Double-stranded DNA IgG and IgM antibodies were quantified as described. Briefly, 96 well Nunc-Immuno plates (Thermo Fisher Scientific, Roskilde, Denmark) were coated with poly-L-lysine (1:1 diluted with PBS) and incubated for two hours. […] Absorbance was measured at 450 nm using a Tecan Microplate Reader (Biotek, Winnoski, VT). Indirect immunofluorescence was used to quantify ANA in mouse plasma. […]
Mouse kidney tissue was fixed in 2% paraformaldehyde/2% glutaraldehyde and 0.1M sodium phosphate buffer (pH 7.4) for 24 hours and processed as described. Samples were analyzed with a 1200EX electron microscope (JEOL, Tokyo, Japan).

MRL-(Fas)lpr mice [2] = assay: Experimental lupus nephritis, late onset of treatment week 15 to 19; conditions: late onset week 15-19
Method: To further assess the potency of Cat-S inhibition to control advanced lupus nephritis we performed identical experiments with the highest dose of RO5459072 and MMF, which were not initiated before week 15 of age and continued for only 4 weeks and terminated again at week 19.
as §1
(§2) Kidney tissue samples were collected from all mice and fixed overnight in 4% buffered formalin. Subsequently the fixed tissue samples were embedded in paraffin and cut into 4 µm thick serial sections. Kidney paraffin sections were stained with periodic acid-Schiff (PAS) reaction using standardized protocols as described. Scoring of lupus nephritis activity and chronicity indices was performed according to human lupus nephritis, [43]. Methenamine silver staining was performed on paraffin embedded kidney sections and semiquantitatively scored form 0–3 by a blinded observer. For immunostaining the following primary antibodies were used: anti-mouse CD3 (Abcam, Cambridge, UK), complement C3c (Biobyt Ltd, Cambridge, UK), CD31 (Dianova GmbH, Hamburg, Germany), WT1 (Santa Cruz Biotechnology, Dallas, Texas) and nephrin (Acris Antibodies, San Diego, CA). The immunostaining for C3c and CD31 were analyzed using the ImageJ software by measuring positively stained area and dividing it by the total area of the glomerulus and reported as percentage of +ve area. Sections stained for WT1/nephrin and CD3 were evaluated by counting positive cells per glomerulus. All the morphometric analysis were carried out in a blinded fashion.
(§3) Urinary albumin/creatinine ratios were determined using the Mouse Albumin ELISA Quantitation set (Bethyl Laboratories, Montgomery, TX) and the Creatinine FS kit (DiaSys Diagnostic Systems, Holzheim, Germany)[44]. BUN levels were determined in plasma samples using a Urea FS kit (DiaSys Diagnostic Systems). Mouse IgM, IgG and its isotypes IgG1, IgG2a and IgG2b plasma levels were measured using ELISA Sets (Bethyl Laboratories) at a plasma dilution of 1:1,000 to 1:100,000. Double-stranded DNA IgG and IgM antibodies were quantified as described. Briefly, 96 well Nunc-Immuno plates (Thermo Fisher Scientific, Roskilde, Denmark) were coated with poly-L-lysine (1:1 diluted with PBS) and incubated for two hours. After washing the plates, the plates were coated with 1 µg/ml mouse tail dsDNA sparing the wells for standards, which were coated with anti-mIgG and anti-mIgM (Bethyl Laboratories). […]

MRL-(Fas)lpr mice [3] = assay: Experimental SLE and lupus nephritis, treatment week 11 to 19
Method: as §1, §2
as §3, with “Laboratories). The standard curve was fixed from purified mIgG and mIgM (Bethyl Laboratories). The plasma samples were diluted 1:1,000 and added into the wells. After 1 h the assay was developed using HRP-labelled goat anti-mIgG and anti-mIgM and TMB substrate (BD Bioscience, San Diego, CA).” for “Laboratories).”

CC[C@H](C)[C@H](NC(=O)[C@H](CC1CCCCC1)NC(=O)c1ccno1)C(=O)N1CCC2(CCc3ccccc32)CC1 [GB83, reference compound]
Cat-S-induced albuminuria (MRL-(Fas)lpr mice [1]; 30 min, RO5459072 30 mg/kg/day pretreatment, GB83 10 mg/kg i.p.): completely prevented; also recorded: entirely blocked
Cat-S-induced glomerular endothelial cell injury (TEM) (MRL-(Fas)lpr mice [1]; 24 h): completely prevented

COc1c(C)c2c(c(O)c1C/C=C(\C)CCC(=O)OCCN1CCOCC1)C(=O)OC2 [MMF, mycophenolate mofetil, reference compound]
anti-dsDNA IgM (MRL-(Fas)lpr mice [2]): did not affect
lupus nephritis disease chronicity index (MRL-(Fas)lpr mice [2]): failed to significantly suppress
plasma IgM levels (MRL-(Fas)lpr mice [2]): trend toward lower
proteinuria and BUN at week 19 compared to control mice (MRL-(Fas)lpr mice [2]): significantly reduced
plasma IgG and its isotypes and anti-dsDNA IgG (MRL-(Fas)lpr mice [2]; highest dose of RO5459072, MMF): had no effect
food intake or body weight between groups (MRL-(Fas)lpr mice [3]; medicated diets, throughout the study period): no significant difference
intrarenal mRNA expression of IL-6, MCP-1/CCL2, RANTES/CCL5 and CXCL2 (MRL-(Fas)lpr mice [3]; real time PCR, kidney): suppressed
intrarenal mRNA expression of TNF-α, IFN-γ and SDF-1/CXCL12 (MRL-(Fas)lpr mice [3]; real time PCR, kidney): remained unaffected
blood urea nitrogen (BUN) over time (MRL-(Fas)lpr mice [3]; week 11-19): prevented the progressive increase
total levels of plasma IgM (MRL-(Fas)lpr mice [3]; week 11-19, ELISA): suppressed plasma IgM levels below baseline
plasma dsDNA IgG levels (IgG autoantibodies) (MRL-(Fas)lpr mice [3]; week 11-19, RO5459072 highest dose, MMF 100 mg/kg/day, ELISA): does not reduce
spleen CD11c+/CD11b+/MHCII+ antigen-presenting cells (MRL-(Fas)lpr mice [3]; week 11-19, flow cytometry): suppressed
integrity of the glomerular vasculature (CD31 staining) (MRL-(Fas)lpr mice [3]; week 19): improved
